Assay results published in US11034659B2, “Pyrimidine derivative” (Daiichi Sankyo Company, Limited, priority 2016, dated 2021).
Where a name gives a salt, the structure may show the parent alone.

Tested on: CuFi-1 cells
Assay: Secretory activity for chloride ions (MQAE fluorescence) in CuFi-1 cells
Type: cell-based
Details: Homo sapiens, CuFi-1, CuFi-1 cells, zinc final concentration 10 μM
Experimental: Measurement of the secretory activity for chloride ions was performed in accordance with a previous report (West and Molloy, 1996). CuFi-1 cells were plated on a 96 well plate in 3×10^4 cells/well and incubated for two nights. After removing the culture medium, 100 μL/well of N-(ethoxycarbonylmethyl)-6-methoxyquinolinium bromide (MQAE) (diluted with culture medium and the concentration adjusted to 5 mM) was added. After the addition of MQAE, the cells were incubated for one night so that the indicator was passively loaded. After the loading, the cells were washed two times with Assay buffer, and 100 μL/well of Assay buffer was added. The secretory capacity for chloride ions was measured using FlexStation 1 (fluorescence wavelength of Ex: 355 nm/Em: 460 nm). In order to measure the basic value, nothing was added for 34 seconds immediately after the start of the measurement. Then, at this point, 100 μL/well of the test compound and zinc (final concentration: 10 μM) diluted with Assay buffer, which is free of chloride ions, was added, and the measurement was continued for 86 seconds (total measurement time: 120 seconds). The secretory capacity for chloride ions was calculated by dividing the average of RFU values in 10 seconds between 110 seconds and 120 seconds after the start of the measurement with the average between 0 second and 34 seconds (the basic value). The secretory activity for chloride ions of the test compound (EC50 value) was calculated by obtaining the secretory capacity for chloride ions at each concentration of the serially diluted test compound, and determining a concentration of the test compound that provides a secretory capacity of 50% from two secretory capacities and concentrations sandwiching 50% of the maximum response of each compound.

Compound | EC50 [nM]
CCOc1nc(C(=O)O)nc(C)c1Cc1ccc(Cl)cc1Cl [Example 33] | 18.4
CCNc1nc(C(=O)O)nc(C)c1Sc1ccccc1F [Example 25] | 14.6
CCOc1nc(C(=O)O)nc(C)c1Cc1ccc(Cl)cc1F [Example 56] | 16
CCNc1nc(C(=O)O)nc(COC)c1Cc1ccc(Cl)cc1Cl [Example 16, 5-(2,4-Dichlorobenzyl)-4-(ethylamino)-6-(methoxymethyl)pyrimidine-2-carboxylic acid] | 52.7
Cc1nc(C(=O)O)nc(NCCCOC(C)C)c1Cc1ccc(Cl)cc1Cl [Example 5, 5-(2,4-Dichlorobenzyl)-4-((3-isopropoxypropyl)amino)-6-methylpyrimidine-2-carboxylic acid] | 30.3
CNc1nc(C(=O)O)nc(C)c1Oc1ccc(Cl)cc1Cl [Example 17, 5-(2,4-Dichlorophenoxy)-4-methyl-6-(methylamino)pyrimidine-2-carboxylic acid] | 15.7
COc1nc(C(=O)O)nc(C(C)C)c1Cc1ccc(Cl)cc1Cl [Example 71] | 30.2
CCc1nc(C(=O)O)nc(SC)c1Sc1ccc(Cl)cc1Cl [Example 77] | 14.6
CCCc1nc(C(=O)O)nc(OC)c1Cc1ccccc1Cl [Example 45, hydrochloride] | 14.7
COc1nc(C(=O)O)nc(C)c1Sc1ccc(Cl)cc1Cl [Example 36] | 80.6
CCCc1nc(C(=O)O)nc(OC)c1Cc1ccc(F)cc1Cl [Example 46] | 15.9
Cc1nc(C(=O)O)nc(OC(C)C)c1Cc1ccccc1Cl [Example 74, 5-(2-Chlorobenzyl)-4-isopropoxy-6-methylpyrimidine-2-carboxylic acid] | 33.4
CCCNc1nc(C(=O)O)nc(C)c1Cc1ccc(Cl)cc1Cl [Example 2, 5-(2,4-Dichlorobenzyl)-4-methyl-6-(n-propylamino)pyrimidine-2-carboxylic acid hydrochloride] | 24.2
CNc1nc(C(=O)O)nc(C)c1Sc1ccccc1 [Example 23] | 86
Cc1nc(C(=O)O)nc(SCCO)c1Sc1ccc(Cl)cc1Cl [Example 82] | 30.8

Now those with a lower EC50, led by results:

EC50 [nM] | Compound
12.9 | CCNc1nc(C(=O)O)nc(C)c1Sc1ccccc1C(F)(F)F [Example 24]
2.8 | CNc1nc(C(=O)O)nc(C)c1Sc1cccc(Cl)c1Cl [Example 28]
5.5 | CCc1nc(C(=O)O)nc(OC)c1Cc1ccccc1Cl [Example 39]
5.1 | Cc1nc(C(=O)O)nc(OCc2cccc(C#N)c2)c1Cc1ccccc1Cl [Example 89, 5-(2-Chlorobenzyl)-4-((3-cyanobenzyl)oxy)-6-methylpyrimidine-2-carboxylic acid]
2.9 | CNc1nc(-c2nnn[nH]2)nc(C)c1Sc1ccc(Cl)cc1Cl [Example 106]
13.2 | Cc1nc(C(=O)O)nc(O[C@H]2C[C@H](C#N)C2)c1Cc1ccccc1Cl [Example 91]
4 | COc1nc(C(=O)O)nc(C)c1Cc1ccc(C(F)(F)F)cc1Cl [Example 68]
11.1 | CCc1nc(C(=O)O)nc(NC)c1Cc1ccccc1Cl [Example 11, 5-(2-Chlorobenzyl)-4-ethyl-6-(methylamino)pyrimidine-2-carboxylic acid]
9.4 | CCNc1nc(C(=O)O)nc(C)c1Cc1ccc(Cl)cc1Cl [Example 1, 5-(2,4-Dichlorobenzyl)-4-(ethylamino)-6-methylpyrimidine-2-carboxylic acid hydrochloride]
11.1 | Cc1nc(C(=O)O)nc(OCc2ccc(F)cc2F)c1Cc1ccccc1Cl [Example 100]
4.6 | CCNc1nc(C(=O)O)nc(C)c1Sc1ccccc1Cl [Example 18, 5-((2-Chlorophenyl)thio)-4-(ethylamino)-6-methylpyrimidine-2-carboxylic acid]
5.6 | CNc1nc(C(=O)O)nc(C(C)C)c1Cc1ccccc1Cl [Example 13, 5-(2-Chlorobenzyl)-4-isopropyl-6-(methylamino)pyrimidine-2-carboxylic acid]
5.1 | Cc1nc(C(=O)O)nc(O[C@H]2C[C@@H](C#N)C2)c1Cc1ccccc1Cl [Example 92]
